From patent US7294625B2, “Pyrazole compounds” (Ube Industries, Ltd., priority 2002, dated 2007)

Legend:
[1] = biological target: T1, p38MAP kinase (Homo sapiens, UniProt Q16539); experiment: Enzyme inhibitory test against p38MAP kinase; format: biochemical; details: active type p38MAP kinase, EGFR peptide substrate, [γ-32P]ATP, 30° C. 30 minutes; read-out: p38MAP kinase inhibition IC50 value
T1 construct: purchased Stratagene (p38MAP kinase); Upstate (SKK/MKK6) #206145 (p38MAP kinase); #14-225 or #14-303 (SKK/MKK6)
Experimental: Test Example 1 Enzyme Inhibitory Test Against p38MAP Kinase
(1) Preparatoin of Active Type p38MAP Kinase
An active type p38MAP kinase was prepared by incubation in a reaction solution (25 mM Tris-HCl pH 7.5, 5 mM β-glycerolphosphate, 2 mM DTT, 0.1 mM […], 10 mM MgCl2, 1 mM ATP) containing p38MAP kinase (Stratagene, #206145) and SKK/MKK6 (Upstate, #14-225 or #14-303) at 30° C. for 1 to 3 hours. This enzyme solution was diluted 5 to 10-fold with Stock Buffer (50 mM Tris-HCl pH 7.5, 0.1 mM EGTA, 0.2 mM Orthovanadate, 0.1% 2-ME, 10% glycerol, 0.03% Brij-35, 0.5 μM Microcystin), and preserved under freezing (−80° C.).
(2) Measurement of Inhibitory Activity of p38MAP Kinase
To 34 μL of a reaction solution (25 mM HEPES, pH 7.5, 10 mM Magnesium acetate) containing the active type p38MAP kinase prepared as mentioned above and a substrate (final concentration: […] EGFR; […]) was added 1 μL of DMSO, or a compound to be tested and dissolved in DMSO, then, the mixture was subjected to preincubation at 4° C. for 30 minutes. A reaction was started by adding 5 μL of an ATP solution (400 μM ATP, 1 μCi/μL [γ-^32P]ATP), and reacted at 30° C. for 30 minutes, and then, the reaction was stopped by adding 5 μL of 250 mM H3PO4. 25 μL of the reaction solution was placed on chromatography paper (Whatman, #P81), dried for about 2 minutes, and washed with 75 mM H3PO4. Water was removed by using 95% ethanol, it was transferred to a bial containing liquid scintillation cocktail (available from Nacalai Tesque), and radioactivity was measured. A concentration (IC50 value) of a compound to be tested necessary for inhibiting 50% of phosphrylation (^32P) of the substrate by the enzyme was calculated as compared to that non-treated by the compound to be tested by XL-fit (available from IDBS).

[2] = tested on: LPS-induced TNF-α production in human PBMC; experiment: Inhibition of TNF-α production in human PBMC (in vitro); format: cell-based; details: LPS 10 μg/ml, 18 hours, TNF-α ELISA, read-out: Inhibitory effect on LPS-induced TNF-α production in human PBMC IC50 value
Experimental: Test Example 2 Inhibition of TNF-α Production in Human PBMC (In Vitro)
Test was carried out according to the method of Welker et al. (Int. Arch. Allergy Immunol., 109, 110-115 (1996).
Heparin-added blood collected from healthy volunteer with consent was underlayed with a specific gravity-separating solution (Lymphoprep; available from Daiichi Pure Chemicals Co., Ltd.), subjected to centrifugation (800×g, 25 minutes), and a mononuclear cell layer was recovered. The obtained mononuclear cells (human PBMC) were washed twice with PBS (available from SIGMA), and resuspended in 1% FCS-containing RPMI aqueous solution (available from GIBCO) so that the cells became 5×10^6 cells/mL. The thus obtained cell suspension was diluted 10-fold with 1% FCS-containing RPMI medium, DMSO (or the compound to be tested) with a final concentration of 0.5% was added thereto, and cultured at 37° C. in 5% CO2 for 1 hour. After that, LPS (derived from E. Coli 055:5B, available from SIGMA) solution prepared by PBS was added so that the final concentration thereof being 10 μg/ml, and cultivation was carried out for further 18 hours. After the cultivation, culture medium was subjected to centrifugation (800×g, 10 minutes), and a concentration of TNF-α produced in the supernatant was measured by an enzyme-linked immunosorbent assay (ELISA) kit (TNF-α ELISA Kit, available from R&D). The concentration (IC50 value) of the test compound for inhibiting 50% of TNF-α production was calcualted by using XL-fit (available from IDBS).

[3] = tested on: rat adjuvant arthritis model; experiment: Anti-inflammatory effect in rat adjuvant arthritis model; format: in vivo; details: LEW rats, 3 mg/Kg oral once a day
Experimental: Test Example 4 Anti-inflammatory Effect in Rat Adjuvant Arthritis Model
Heat-killed bacteria of Mycobacterium butyricum (available from Difco) were pulverized by agate mortar, and this was suspended in dry-heat sterilized liquid paraffin (available from Wako Pure Chemical Industries, Ltd.) so as to have 10 mg/ml, and subjected to ultrasonic wave treatment to obtain an adjuvant. 500 μg/50 μl/paw of the adjuvant was administered into right hind paw of LEW series rats (female, 7-weeks old, available from Charles River Japan, Inc.) under isoflurane (Forane, available from Abbott Japan) inhalation anesthesia to induce adjuvant arthritis. Also, liquid paraffin containing no dead bacteria was also administered in the same manner as mentioned above to prepare a non-treatment group.
The test compound was suspended in a 0.5% aqueous sodium carboxymethyl cellulose solution, or dissolved in distilled water for injection, and orally administered at a dose of 10 ml/kg once a day from the injected day of the adjuvant (0th day) to 27th day.
After 7th, 14th, 21st and 28th day from administration of the adjuvant, volumes of the right hind paw to which the adjuvant had been administered and of left hind paw to which no adjuvant had been administered were measured by a plethysmometer (TK-101CMP, UNICOM). An edema ratio was calculated from the following equation. Edema ratio (%)=[(volume of hind paw at the time of measurement)/(volume of hind paw before initiation of the test)−1]×100 Moreover, edema suppressive ratio based on the control group to which the vehicle was administered was calculated from the following equation. Edema suppressive ratio (%)=[1-{(edema ratio of test compound-administered group)−(edema ratio of non-treated group)}/{(edema ratio of control group)−(edema ratio of non-treatment group)}]×100 The test results are shown in Table 8.

[4] = tested on: cytokine (IL-1β and TNF-α) induced IL-6 production; experiment: Inhibition of IL-6 production in rat (in vivo); details: LEW rats, 3 mg/Kg oral, 1 hour before IL-1β/TNF-α i.v., serum IL-6 two hours later
Experimental: Test Example 3 Inhibition of IL-6 Production in Rat (In Vivo)
A cytokine mixed solution of IL-1β and TNF-α was intravenously injected to rats to induce production of IL-6. A mixed solution of IL-1β (available from R&D) (4 μg/ml) and TNF-α (available from R&D) (2 μg/ml) dissolved in PBS was administered to tail vein of LEW series rats (female, body weight: about 140 to 170 g, available from Charles River Japan, Inc.) fasted overnight with a ratio of 1 ml/kg of the body weight. Two hours later, blood was collected from the neck vein under ether anesthesia. The collected blood was centrifuged under the conditions of 20° C. and 10,000×g to separate serum. IL-6 concentration in the serum was measured by using an enzyme-linked immunosorbent assay (ELISA) kit (IL-6 ELISA KIT, available from R&D).
The test compound or the vehicle was orally administered with a dose of 10 ml/kg of the body weight before 1 hour of the injection of the cytokine mixed solution. The control group to which the vehicle was administered and the group of the compound to be tested were each 5 rats per group. An inhibitory ratio of the group of the compound to be tested based on control group was calculated.

T1 sequence (Q16539 whole entry): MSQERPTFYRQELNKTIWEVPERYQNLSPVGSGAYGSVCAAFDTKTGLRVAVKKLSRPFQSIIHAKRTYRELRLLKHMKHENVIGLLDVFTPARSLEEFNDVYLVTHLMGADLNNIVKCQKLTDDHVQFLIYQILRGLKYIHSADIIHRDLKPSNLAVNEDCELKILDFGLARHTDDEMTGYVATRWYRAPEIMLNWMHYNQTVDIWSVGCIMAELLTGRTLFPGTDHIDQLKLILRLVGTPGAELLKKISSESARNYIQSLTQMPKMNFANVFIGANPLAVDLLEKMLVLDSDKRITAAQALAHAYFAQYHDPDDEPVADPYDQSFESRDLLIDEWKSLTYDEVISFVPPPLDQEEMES

| IC50 [1] | SMILES | IC50 [2] | 28th day left hind paw edema suppressive ratio (%) @3 mg/Kg [3] | Rat cytokine induced IL-6 production inhibiting ratio (%) @3 mg/Kg [4] | left hind paw edema suppressive ratio (%) @3 mg/Kg ([3]; 21st day) |
| --- | --- | --- | --- | --- | --- |
| 2.5 nM | Nc1cc(-c2cn(-c3ccc(=O)[nH]n3)nc2-c2ccc(F)cc2)ccn1 [Example 2, 4-(2-Aminopyridin-4-yl)-3-(4-fluorophenyl)-1-(1,6-dihydro-6-oxopyridazin-3-yl)-1H-pyrazole] | 24 nM | 83 (28th day) % |  |  |
| 25 nM | Fc1ccc(-c2nn(-c3ccc4nncn4n3)cc2-c2ccncc2)cc1 [Example 5, 3-(4-Fluorophenyl)-4-(pyridin-4-yl)-1-([1,2,4]triazolo[4,3-b]pyridazin-6-yl)-1H-pyrazole] | 4 nM |  | 92% |  |
| 7.4 nM | Nc1cc(-c2cn(-c3ccc4nncn4n3)nc2-c2ccc(F)cc2)ccn1 [Example 8, 4-(2-Aminopyridin-4-yl)-3-(4-fluorophenyl)-1-([1,2,4]triazolo[4,3-b]pyridazin-6-yl)-1H-pyrazole] |  | 79 (28th day) % |  |  |
| 29 nM | CNc1cc(-c2cn(-c3ccc4nncn4n3)nc2-c2ccc(F)cc2)ccn1 [Example 13, 3-(4-Fluorophenyl)-4-(2-methylaminopyridin-4-yl)-1-([1,2,4]triazolo[4,3-b]pyridazin-6-yl)-1H-pyrazole] |  |  |  | 79 (21st day) % |
| 2 nM | Fc1ccc(-c2nn(-c3ccc4nncn4n3)cc2-c2ccnc(NCC(F)(F)F)c2)cc1 [Example 16, 3-(4-Fluorophenyl)-1-([1,2,4]triazolo[4,3-b]pyridazin-6-yl)-4-[2-(2,2,2-trifluoroethyl)aminopyridin-4-yl]-1H-pyrazole] |  |  | 97% |  |
|  | Nc1cc(-c2cn(-c3ccc(=O)[nH]n3)nc2-c2ccccc2F)ccn1 [Example 26, 4-(2-Aminopyridin-4-yl)-3-(2-fluorophenyl)l-1(1,6-dihydro-6-oxopyridazin-3-yl)-1H-pyrazole] |  |  | 77% |  |
| 9.5 nM | Nc1cc(-c2cn(-c3ccc4nncn4n3)nc2-c2ccccc2F)ccn1 [Example 42, 4-(2-Aminopyridin-4-yl)-3-(2-fluorophenyl)-1-([1,2,4]triazolo[4,3-b]pyridazin-6-yl)-1H-pyrazole] |  |  | 73% |  |
| 7 nM | Nc1cc(-c2cn(C3=NNC(=O)CC3)nc2-c2ccccc2)ccn1 [Example 49, 4-(2-Aminopyridin-4-yl)-1-(1,4,5,6-tetrahydro-6-oxopyridazin-3-yl)-3-phenyl-1H-pyrazole] |  |  | 84% |  |
|  | O=C1CCC(n2cc(-c3ccnc(NCC(F)(F)F)c3)c(-c3ccc(F)cc3)n2)=NN1 [Example 56, 3-(4-Fluorophenyl)-1(1,4,5,6-tetrahydro-6-oxopyridazin-3-yl)-4-[2-(2,2,2-trifluoroethyl)aminopyridin-4-yl]-1H-pyrazole] |  |  | 85% |  |
